Each block holds one compound with its values, some of them ahead of it.
Experiments:
HDAC2 = molecular target: T1, HDAC2 (Homo sapiens, UniProt Q92769); test: Fluorescence-based HDAC enzyme assay, recombinant HDAC2; type: biochemical; details: recombinant human HDAC enzyme in vitro; read-out: IC50 (μM) HD2
T1 construct: cDNAs corresponding to the full length human HDAC1, 2, 3 and 11 were cloned into pBlueBac4.5 vector; FLAG (C); made in house; host or cells: Sf-9 insect cells (baculovirus)
Excerpt: (§1) cDNAs of human HDAC1-8 and 11 were generated by RT-PCR reactions using primers complementary to the 5′ and 3′ coding sequence of human HDAC gene sequences in GenBank. cDNAs corresponding to the full length human HDAC1, 2, 3 and 11 were cloned into pBlueBac4.5 vector (Invitrogen). The constructs were used to generate recombinant baculoviruses using the Bac-N-Blue™ DNA according to the manufacturer's instructions (Invitrogen). The recombinant HDAC1, 2, 3, 11 proteins produced harbor a FLAG tag at their C-termini. cDNAs encoding truncated versions of HDAC4, 5 and 7 encompassing their deacetylase domains were cloned into pDEST10 as an N-terminal hexahistidine fusion protein and recombinant baculoviruses were generated using the Bac-to-Bac™ Baculovirus expression system (Invitrogen). HDAC6 and 8 were cloned as full length N-terminally His-tagged protein. All HDAC proteins were expressed in insect Sf-9 cells (Spodoptera frugiperdai) upon infection with recombinant baculovirus. HDAC1 enzyme was purified from the Q-sepharose FF column (Amersham Pharmacia Biotech, Baie d'Urfe QC, Canada) followed by an anti-FLAG immunoaffinity column (Sigma). […] HDAC4, 5, 6, 7 and 8 were purified using either Ni-NTA resin (QIAGEN Mississauga ON, Canada) or His-Select resin (Sigma) with step washes and elution with different concentrations of imidazole in Buffer containing 25 mM Tris (or NaPO4) pH 8.0, 10% glycerol and 150 mM or 500 mM NaCl.
(§2) Boc-Lys(Ac)-AMC (for HDAC1, 2, 3, 6, and 8 enzymes), which was purchased from Bachem Biosciences Inc., (King of Prussia, Philadelphia) were added into enzyme-compound mixture and incubated at 37° C. For HDAC4, 5, 7 assays, Boc-Lys(TFA)-AMC, which was synthesized in house, was used as substrate and 0.1% BSA was added to the buffer. […] Reaction time was predetermined to ensure that reaction was linear for the incubation time. Reaction was stopped by adding a freshly prepared trypsin (1 mg/ml final concentration) with 1 μM TSA (Biomol) in assay buffer. After 30 minutes, fluorescence was measured using a fluorometer (SPECTRAMAX GeminiXS, Molecular Devices, Sunnylvale, Calif.).

HDAC3 = molecular target: T2, HDAC3 (Homo sapiens, UniProt O15379); test: Fluorescence-based HDAC enzyme assay, recombinant HDAC3; type: biochemical; details: recombinant human HDAC enzyme in vitro; read-out: IC50 (μM) HD3
T2 construct: cDNAs corresponding to the full length human HDAC1, 2, 3 and 11 were cloned into pBlueBac4.5 vector; FLAG (C); made in house; host or cells: Sf-9 insect cells (baculovirus)
Excerpt: cDNAs of human HDAC1-8 and 11 were generated by RT-PCR reactions using primers complementary to the 5′ and 3′ coding sequence of human HDAC gene sequences in GenBank. cDNAs corresponding to the full length human HDAC1, 2, 3 and 11 were cloned into pBlueBac4.5 vector (Invitrogen). The constructs were used to generate recombinant baculoviruses using the Bac-N-Blue™ DNA according to the manufacturer's instructions (Invitrogen). The recombinant HDAC1, 2, 3, 11 proteins produced harbor a FLAG tag at their C-termini. cDNAs encoding truncated versions of HDAC4, 5 and 7 encompassing their deacetylase domains were cloned into pDEST10 as an N-terminal hexahistidine fusion protein and recombinant baculoviruses were generated using the Bac-to-Bac™ Baculovirus expression system (Invitrogen). HDAC6 and 8 were cloned as full length N-terminally His-tagged protein. All HDAC proteins were expressed in insect Sf-9 cells (Spodoptera frugiperdai) upon infection with recombinant baculovirus. HDAC1 enzyme was purified from the Q-sepharose FF column (Amersham Pharmacia Biotech, Baie d'Urfe QC, Canada) followed by an anti-FLAG immunoaffinity column (Sigma). HDAC2, 3 and 11 were purified using Flag-antibody immunoaffinity purification. HDAC4, 5, 6, 7 and 8 were purified using either Ni-NTA resin (QIAGEN Mississauga ON, Canada) or His-Select resin (Sigma) with step washes and elution with different concentrations of imidazole in Buffer containing 25 mM Tris (or NaPO4) pH 8.0, 10% glycerol and 150 mM or 500 mM NaCl.
Recombinant HDAC enzymes were incubated with diluted compounds in assay buffer (25 mM Hepes, pH 8.0, 137 mM NaCl, 1 mM MgCl2 and 2.7 mM KCl) for 10 minutes at ambient temperatures in black 96-well plate. Boc-Lys(Ac)-AMC (for HDAC1, 2, 3, 6, and 8 enzymes), which was purchased from Bachem Biosciences Inc., (King of Prussia, Philadelphia) were added into enzyme-compound mixture and incubated at 37° C. […] After 30 minutes, fluorescence was measured using a fluorometer (SPECTRAMAX GeminiXS, Molecular Devices, Sunnylvale, Calif.). […]

HDAC1 = molecular target: T3, HDAC1 (Homo sapiens, UniProt Q13547); test: Fluorescence-based HDAC enzyme assay, recombinant HDAC1; type: biochemical; details: recombinant human HDAC enzyme in vitro; read-out: IC50 (μM) HD1
T3 construct: cDNAs corresponding to the full length human HDAC1, 2, 3 and 11 were cloned into pBlueBac4.5 vector; FLAG (C); made in house; host or cells: Sf-9 insect cells (baculovirus)
Excerpt: as §1, §2

[1] = system: recombinant human HDAC enzymes; test: HDAC isotype selectivity across recombinant HDAC enzymes; type: biochemical; details: from Table 1
Excerpt: as §1, §2

[2] = system: histone H3 acetylation in human bladder carcinoma T24 cells; test: Cell-based ELISA for H3 acetylation
Method: (§3) Bladder carcinoma T24 cells were seeded in black plates with clear bottoms (Costar #3603) at 1×10^4 cells per well in a volume of 100 μl per well, and were allowed to settle for one day at 37° C. in a CO2 incubator. The cells were treated for 16 h with various concentrations of HDAC inhibitors. 3 h before the end of the treatment, Alamar Blue (BioSource) was added to monitor cell viability according to the manufacturer's instructions. At the end of the treatment time, Alamar Blue OD (at 570 nm and 600 nm) was recorded, then the cells were carefully washed in PBS, fixed in pre-chilled methanol for 10 min at −20° C., washed again twice in PBS, and blocked in PBS containing 0.1% Triton X-100 and 1% BSA for a minimum of 30 min. For H3 acetylation, rabbit-anti-acetyl-H3 (Upstate #06-599) was used as primary antibody at a dilution of 1:1000 for 45 min; the secondary antibody was HRP-coupled goat-anti-rabbit (Sigma #A-0545), used at 1:8000 for 45 min. For tubulin acetylation, the primary antibody was mouse anti-acetyl-tubulin (Sigma #T-6793, 1:2000, 45 min) while the secondary was HRP-coupled goat-anti-mouse antibody (Sigma #A-2304, 1:8000, 45 min). All antibodies were diluted in blocking buffer, and the cells were washed in blocking buffer following each antibody incubation. […] The fluorescent signal for acetylation was normalized by dividing with the viability data obtained from Alamar Blue. EC50 was defined as the concentration of compound which gave a signal half-way between the basal (untreated) level and the maximum level generated by high doses of the HDAC pan-inhibitor NVP-LAQ-824.

[3] = system: tubulin acetylation in human bladder carcinoma T24 cells; test: Cell-based ELISA for tubulin acetylation
Method: as §3

[4] = system: TSP-1 expression in cancer cells (Du145, H460, A549); test: TSP-1 transcription in cancer cells in vitro; type: cell-based, human; details: over time, 3 microM, 24 hours
Method: (§4) Cells were exposed by Cpd A or SAHA (3 microM) for 24 hours. Total RNA was collected by Isogen (Nippongene, Tokyo, Japan) and reverse-transcribed to cDNA by ExScript® RT reagent Kit (TAKARA, Kyoto, Japan). The expression level of TSP-1 mRNA was detected by ABI7700 analyzer using a probe/primer pre-mixture reagent (ABI, Cat#, CA, USA) and TaqMan® Universal PCR Master Mix (ABI, Cat# 430-4437) as described in the ABI's protocol.

[5] = system: bFGF transcription in human prostate cancer Du145 cells; test: bFGF transcription in Du145 cells in vitro; type: cell-based; details: 3 μM, 24 hour treatment
Method: as §4, with “Human prostate cancer Du145 cells were” for “Cells were”, “exposed to” for “exposed by”, “of bFGF” for “of TSP-1”, “using” for “using a”, “(ABI, Cat# Hs00266645_m1,” for “(ABI, Cat#,”, “protocol. The expression level of VEGF mRNA was detected in a similar manner using the appropriate probe/primer reagents.” for “protocol.”

[6] = system: VEGF expression in DU145 cells; test: VEGF transcription in Du145 cells in vitro; type: cell-based, human; details: 24 hour treatment
Method: as §4, with “Human prostate cancer Du145 cells were” for “Cells were”, “exposed to” for “exposed by”, “of bFGF” for “of TSP-1”, “using” for “using a”, “(ABI, Cat# Hs00266645_m1,” for “(ABI, Cat#,”, “protocol. The expression level of VEGF mRNA was detected in a similar manner using the appropriate probe/primer reagents.” for “protocol.”

H460 (NSCLC) xenografts = test: H460 (NSCLC) xenograft, oral HDAC inhibitor with taxol; type: in vivo, mouse; details: Compound A 100 mg/kg or SAHA 120 mg/kg with taxol 60 mg/kg
Method: (§5) Antitumor studies were done using human H460 non-small cell lung tumor, Du145 prostate tumor, TSU-Pr1 prostate tumor, and AZ521 gastric tumor xenograft model in male BALBc/A nude mice (from Japan Crea Inc., Japan). Male nude mice were used at age 8-10 weeks. Human carcinoma cells were injected subcutaneously in the animal flank and allowed to form solid tumors. Tumor fragments (about 2 mm^3 fragments) were then removed and implanted subcutaneously through a small surgical incision to the right flank of other animals. […] Tumor volumes and gross body weight of animals were monitored twice weekly for up to 2 weeks for AZ-521 and TSU-Pr1, or 4 weeks for H460 and Du145 xenografts. Each experimental group contained 6 animals.

[7] = system: human H460 non-small cell lung tumor, Du145 prostate tumor, TSU-Pr1 prostate tumor, and AZ521 gastric tumor xenograft; test: Xenograft combination studies with taxol (Example 15); type: in vivo, mouse; details: oral administration, nude mice with human lung, prostate and gastric tumors
Method: as §5

[8] = system: mouse endothelial MS-1 cells; test: Growth inhibition of MS-1 cells by taxol with recombinant TSP-1; type: cell-based; details: recombinant TSP1 10 ug/ml, 72 hour
Method: Mouse endothelial MS-1 cells were seeded into 96 well-plate and incubated in 5% CO2 incubator for 24 hours. Taxol at various concentrations was added into cell culture and 6 hours later media were replaced with fresh media containing recombinant TSP1 (10 ug/ml) but without taxol. After 72 hour incubation, the growth inhibitory effect was determined by crystal violet staining.

T2 sequence (O15379 whole entry): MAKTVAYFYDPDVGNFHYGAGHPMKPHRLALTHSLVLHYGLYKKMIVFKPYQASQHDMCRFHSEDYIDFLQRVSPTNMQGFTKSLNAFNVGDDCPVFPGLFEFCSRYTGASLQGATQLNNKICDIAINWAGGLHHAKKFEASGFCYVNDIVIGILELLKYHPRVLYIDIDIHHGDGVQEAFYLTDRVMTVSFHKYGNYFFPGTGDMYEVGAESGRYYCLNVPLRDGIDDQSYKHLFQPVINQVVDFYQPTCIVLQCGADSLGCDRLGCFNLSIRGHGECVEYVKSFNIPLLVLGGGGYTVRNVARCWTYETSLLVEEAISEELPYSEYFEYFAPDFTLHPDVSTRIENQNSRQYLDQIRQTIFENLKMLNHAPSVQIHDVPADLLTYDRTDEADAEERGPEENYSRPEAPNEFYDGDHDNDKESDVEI
T3 sequence (Q13547 whole entry): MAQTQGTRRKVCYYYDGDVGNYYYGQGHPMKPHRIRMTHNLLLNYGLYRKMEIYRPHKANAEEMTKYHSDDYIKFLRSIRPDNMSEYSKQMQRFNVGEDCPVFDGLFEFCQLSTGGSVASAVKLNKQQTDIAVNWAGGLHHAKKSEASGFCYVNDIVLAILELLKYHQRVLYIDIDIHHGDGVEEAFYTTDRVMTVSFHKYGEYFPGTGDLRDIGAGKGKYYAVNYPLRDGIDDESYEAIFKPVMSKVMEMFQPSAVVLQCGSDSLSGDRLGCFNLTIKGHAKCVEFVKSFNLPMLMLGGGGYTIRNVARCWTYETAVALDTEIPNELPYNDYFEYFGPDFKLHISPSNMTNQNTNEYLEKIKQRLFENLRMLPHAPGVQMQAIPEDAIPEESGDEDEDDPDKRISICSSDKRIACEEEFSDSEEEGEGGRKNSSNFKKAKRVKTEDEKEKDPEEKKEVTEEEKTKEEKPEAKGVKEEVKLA
T1 sequence (Q92769 whole entry): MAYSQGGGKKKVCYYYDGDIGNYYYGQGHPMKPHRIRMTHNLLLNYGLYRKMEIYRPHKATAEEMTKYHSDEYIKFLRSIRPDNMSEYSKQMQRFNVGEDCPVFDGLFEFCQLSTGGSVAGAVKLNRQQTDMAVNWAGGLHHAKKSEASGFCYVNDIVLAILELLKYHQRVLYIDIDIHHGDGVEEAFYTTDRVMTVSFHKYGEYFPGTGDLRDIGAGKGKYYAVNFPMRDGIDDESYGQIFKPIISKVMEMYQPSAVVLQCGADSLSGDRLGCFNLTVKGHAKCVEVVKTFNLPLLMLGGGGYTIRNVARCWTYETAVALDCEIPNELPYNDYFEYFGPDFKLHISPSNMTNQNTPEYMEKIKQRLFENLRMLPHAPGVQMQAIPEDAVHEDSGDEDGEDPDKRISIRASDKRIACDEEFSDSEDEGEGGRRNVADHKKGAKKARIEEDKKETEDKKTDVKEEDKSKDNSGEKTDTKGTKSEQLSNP

IC50 (HDAC2): > 10 µM
IC50 (HDAC3): > 10 µM
IC50 (HDAC1): > 10 µM
HDAC isotype selectivity [1]: inactive
Compound: O=C(Nc1ccccc1)c1ccc(CNc2nccc(-c3cccnc3)n2)cc1 [Compound C]

Compound: O=C(/C=C/c1ccc(CN(CCO)CCc2c[nH]c3ccccc23)cc1)NO [NVP-LAQ824]
histone H3 acetylation [2]: Nonselective effect
tubulin acetylation [3]: Nonselective effect

Compound: O=C(CCCCCCC(=O)Nc1ccccc1)NO [SAHA, reference compound]
TSP-1 expression [4]: Induction
bFGF transcription [5]: Reduction
VEGF expression [6]: Reduction
tumor response to combination therapy with taxol (H460 (NSCLC) xenografts): tumor regression
histone H3 acetylation [2]: Nonselective effect
antitumor activity of taxol [7]: Potentiation
tubulin acetylation [3]: Nonselective effect

Compound: Recombinant TSP-1: recombinant thrombospondin-1, agonist of TSP1 receptor
proapoptotic effect of taxol [8]: Potentiates

— patent US20090124631A1, “Combination Therapy” (priority 2007, published 2009)
